In patent US9315494B2, “Alkyl-amide-substituted pyridyl compounds useful as modulators of IL-12, IL-23 and/or IFNα responses” (Bristol-Myers Squibb Company, priority 2012, dated 2016):
Where two headings read alike, the source gives them in different places.

Legend:
[1] = tested on: IFNα-stimulated STAT-dependent luciferase reporter in Kit225 T cells; test: Kit225 T cell assay, IFNα stimulated STAT-dependent luciferase reporter; assay type: cell-based, human
Experimental: (§1) Kit225 T cells with a stably-integrated STAT-dependent luciferase reporter were plated in RPMI (Gibco) containing 10% heat-inactivated FBS (Gibco) and 100 U/mL PenStrep (Gibco). The cells were then stimulated with either 20 ng/mL human recombinant IL-23 or 200 U/mL human recombinant IFNα (PBL InterferonSource) for 5-6 hours. Luciferase expression was measured using the STEADY-GLO® Luciferase Assay System (Promega) according to the manufacturer's instructions.

[2] = tested on: IL-23-stimulated STAT-dependent luciferase reporter in Kit225 T cells; test: Kit225 T cell assay, IL-23 stimulated STAT-dependent luciferase reporter; assay type: cell-based, human
Experimental: as §1

[3] = Kit225 T cells, 200 U/mL human recombinant IFNα, 5-6 hours, luciferase, read-out: IFNα (Kit225 T Cell Inhibition Data)
[4] = Kit225 T cells, 20 ng/mL human recombinant IL-23, 5-6 hours, luciferase, read-out: IL23 (Kit225 T Cell Inhibition Data)

| SMILES | IC50 [1, 3] [nM] | IC50 [2, 4] [nM] | IC50 ([1]; Homo sapiens, KIT225, read-out: IFNα (Kit225 T Cell Inhibition Data)) [nM] | IC50 ([2]; Homo sapiens, KIT225, read-out: IL23 (Kit225 T Cell Inhibition Data)) [nM] |
| --- | --- | --- | --- | --- |
| CNC(=O)c1cnc(Nc2ccc(F)cn2)cc1Nc1cccc2c1OC(F)(F)O2 [Example 123] | 11100 | 8790 |  |  |
| CNC(=O)c1cnc(Nc2ccc(C#N)cn2)cc1Nc1ccc(F)cc1OC [Example 124] | 640 | 462 |  |  |
| CNC(=O)c1cnc(Nc2ccc(-n3cc(F)ccc3=O)cn2)cc1Nc1ccc(F)cc1OC [Example 126] | 700 | 830 |  |  |
| CNC(=O)c1cnc(Nc2ccc(N3CCCC3=O)cn2)cc1Nc1ccc(F)cc1OC [Example 127] | 470 | 852 |  |  |
| CNC(=O)c1cnc(Nc2cc(C)ccn2)cc1Nc1cc(F)cc(F)c1OC [Example 129] | 80 | 86.6 |  |  |
| CNC(=O)c1cnc(Nc2cccc(OC)n2)cc1Nc1cc(F)cc(F)c1OC [Example 130] | 50 | 119 |  |  |
| CNC(=O)c1cnc(Nc2ccccn2)cc1Nc1cc(F)cc(F)c1OC [Example 131] | 60 | 183 |  |  |
| CNC(=O)c1cnc(Nc2cccc(C)n2)cc1Nc1cc(F)cc(F)c1OC [Example 132] | 120 | 187 |  |  |
| CNC(=O)c1cnc(Nc2ccc(OC)cn2)cc1Nc1cc(F)cc(F)c1OC [Example 133] | 70 | 179 |  |  |
| CNC(=O)c1cnc(Nc2ccc(C(F)(F)F)cn2)cc1Nc1cc(F)cc(F)c1OC [Example 135] | 1530 | 3420 |  |  |
| CNC(=O)c1cnc(Nc2cc3ccccc3cn2)cc1Nc1cc(F)cc(F)c1OC [Example 136] | 390 | 747 |  |  |
| CNC(=O)c1cnc(Nc2cc(F)ccn2)cc1Nc1cc(F)cc(F)c1OC [Example 137] | 210 | 188 |  |  |
| CNC(=O)c1cnc(Nc2cccc(C(F)(F)F)n2)cc1Nc1cc(F)cc(F)c1OC [Example 138] | 220 | 354 |  |  |
| CNC(=O)c1cnc(Nc2ccc(C#N)c(C)n2)cc1Nc1cc(F)cc(F)c1OC [Example 139] | 180 | 367 |  |  |
| CNC(=O)c1cnc(Nc2cc(C)c(C#N)c(C)n2)cc1Nc1cc(F)cc(F)c1OC [Example 140] | 120 | 281 |  |  |
| CCc1cccc(Nc2cc(Nc3cc(F)cc(F)c3OC)c(C(=O)NC)cn2)n1 [Example 141] | 350 | 401 |  |  |
| CNC(=O)c1cnc(Nc2ccc(N3CCCC3=O)cn2)cc1Nc1ccc(F)cc1OCF [Example 142] | 410 | 742 |  |  |
| CNC(=O)c1cnc(Nc2cccc(-c3ccccc3)n2)cc1Nc1cc(F)cc(F)c1OC [Example 143] | 560 | 783 |  |  |
| CNC(=O)c1cnc(Nc2ccc(C#N)cn2)cc1Nc1cc(F)cc(F)c1OC [Example 145] | 420 | 794 |  |  |

| SMILES | IC50 [1, 3] [nM] | IC50 [2, 4] [nM] | IC50 ([1]; Homo sapiens, KIT225, read-out: IFNα (Kit225 T Cell Inhibition Data)) [nM] | IC50 ([2]; Homo sapiens, KIT225, read-out: IL23 (Kit225 T Cell Inhibition Data)) [nM] |
| --- | --- | --- | --- | --- |
| CNC(=O)c1cnc(Nc2cc3ccccc3cn2)cc1Nc1ccc(F)cc1OC [Example 146] | 1450 | 2160 |  |  |
| CNC(=O)c1cnc(Nc2ccccn2)cc1Nc1ccc(F)cc1OC [Example 147] | 520 | 1060 |  |  |
| CNC(=O)c1cnc(Nc2cc(C)ccn2)cc1Nc1ccc(F)cc1OC [Example 148] | 300 | 751 |  |  |
| CNC(=O)c1cnc(Nc2cc(F)ccn2)cc1Nc1ccc(F)cc1OC [Example 149] | 330 | 1190 |  |  |
| CNC(=O)c1cnc(Nc2cccc(-c3ccccc3)n2)cc1Nc1ccc(F)cc1OC [Example 150] | 1520 | 2700 |  |  |
| CNC(=O)c1cnc(Nc2ccc(F)cn2)cc1Nc1ccc(F)cc1OCF [Example 151] | 240 | 1140 |  |  |
| CNC(=O)c1cnc(Nc2cc(Cl)ccn2)cc1Nc1ccc(F)cc1OC [Example 153] | 970 | 1330 |  |  |
| CNC(=O)c1cnc(Nc2cccc(OC)n2)cc1Nc1ccc(F)cc1OC [Example 154] | 560 | 784 |  |  |
| CNC(=O)c1cnc(Nc2cc(C#N)ccn2)cc1Nc1ccc(F)cc1OC [Example 155] | 190 | 275 |  |  |
| CNC(=O)c1cnc(Nc2cccc(C(F)(F)F)n2)cc1Nc1ccc(F)cc1OC [Example 156] | 720 | 1650 |  |  |
| CNC(=O)c1cnc(Nc2ccc(C(F)(F)F)cn2)cc1Nc1ccc(F)cc1OC [Example 157] | 9860 | 5200 |  |  |
| CNC(=O)c1cnc(Nc2ccc(Cl)cn2)cc1Nc1ccc(F)cc1OC [Example 158] | 2100 | 4440 |  |  |
| CNC(=O)c1cnc(Nc2ccc(C)cn2)cc1Nc1ccc(F)cc1OC [Example 159] | 1400 | 1150 |  |  |
| CNC(=O)c1cnc(Nc2ccc3[nH]ccc3n2)cc1Nc1ccc(F)cc1OC [Example 160] | 1070 | 1240 |  |  |
| CNC(=O)c1cnc(Nc2ccc(OC)cn2)cc1Nc1ccc(F)cc1OC [Example 161] | 610 | 760 |  |  |
| CNC(=O)c1cnc(Nc2ccc(C#N)cn2)cc1Nc1ccc(F)cc1OCF [Example 162] | 460 | 215 |  |  |
| CNC(=O)c1cnc(Nc2cc(C)c(C#N)c(C)n2)cc1Nc1ccc(F)cc1OC [Example 163] | 230 | 306 |  |  |
| CNC(=O)c1cnc(Nc2cccc(-n3ccccc3=O)n2)cc1Nc1cc(F)cc(F)c1OC [Example 164] | 2990 | 4410 |  |  |
| CNC(=O)c1cnc(Nc2cc(C#N)ccn2)cc1Nc1ccc(F)cc1OCF [Example 166] | 90 | 157 |  |  |

| SMILES | IC50 [1, 3] [nM] | IC50 [2, 4] [nM] | IC50 ([1]; Homo sapiens, KIT225, read-out: IFNα (Kit225 T Cell Inhibition Data)) [nM] | IC50 ([2]; Homo sapiens, KIT225, read-out: IL23 (Kit225 T Cell Inhibition Data)) [nM] |
| --- | --- | --- | --- | --- |
| CNC(=O)c1cnc(Nc2cc(-n3ccccc3=O)ccn2)cc1Nc1cc(F)cc(F)c1OC [Example 167] | 310 | 510 |  |  |
| CNC(=O)c1cnc(Nc2cc(-n3ccccc3=O)ccn2)cc1Nc1ccc(F)cc1OC [Example 168] | 1220 | 1420 |  |  |
| CNC(=O)c1cnc(Nc2cc(OC)ccn2)cc1Nc1cc(F)cc(F)c1OC [Example 169] | 440 | 352 |  |  |
| CNC(=O)c1cnc(Nc2cc(OC)ccn2)cc1Nc1ccc(F)cc1OC [Example 170] | 1720 | 1620 |  |  |
| CNC(=O)c1cnc(Nc2ccc(F)cn2)cc1Nc1cccc(F)c1OC [Example 171] | 90 | 175 |  |  |
| CNC(=O)c1cnc(Nc2ccccn2)cc1Nc1cccc(F)c1OC [Example 172] | 50 | 89.2 |  |  |
| CNC(=O)c1cnc(Nc2cc(C#N)ccn2)cc1Nc1cccc(F)c1OC [Example 173] | 50 | 81.9 |  |  |
| CNC(=O)c1cnc(Nc2ccc(F)cn2)cc1Nc1cccc(C)c1C(N)=O [Example 174] | 560 | 1040 |  |  |
| CNC(=O)c1cnc(Nc2ccc(F)cn2)cc1Nc1cccc(F)c1C(N)=O [Example 175] | 500 | 434 |  |  |
| CNC(=O)c1cnc(Nc2cnccn2)cc1Nc1ccccc1C(N)=O [Example 178] | 1880 | 1630 |  |  |
| CNC(=O)c1cnc(Nc2cc(C#N)ccn2)cc1Nc1cnccc1OC [Example 179] | 3250 | 2730 |  |  |
| CNC(=O)c1cnc(Nc2ccc3ccccc3n2)cc1Nc1ccccc1C(C)(C)O [Example 180] | 2580 | 5090 |  |  |
| CNC(=O)c1cnc(Nc2ccccn2)cc1Nc1ccccc1C(C)(C)O [Example 183] | 5970 | 9720 |  |  |
| CNC(=O)c1cnc(Nc2ccc(F)cn2)cc1Nc1ccccc1 [Example 184] |  |  | 4110 | 7980 |
| CNC(=O)c1cnc(Nc2ccc(F)cn2)cc1Nc1ccccc1C1CC1 [Example 185] | 2900 | 2580 |  |  |
| CNC(=O)c1cnc(Nc2ccc(F)cn2)cc1Nc1ccccc1-c1nnc[nH]1 [Example 186] | 7850 | 7810 |  |  |
| CNC(=O)c1cnc(Nc2ccc(F)cn2)cc1Nc1ccc(N2CCOCC2)cc1OC [Example 187] | 2580 | 2820 |  |  |
| CNC(=O)c1cnc(Nc2ccc(F)cn2)cc1Nc1ccccc1OC [Example 190] | 510 | 367 |  |  |
